The source of these data is patent publication US20090017105A1, “PROLIPOSOMAL AND LIPOSOMAL COMPOSITIONS OF POORLY WATER SOLUBLE DRUGS” (priority 2007, published 2009).

The conditions of data set [1]: cited from earlier work; for entrapment in the liposomes: Mayhew et al., U.S. Pat. No. 5,939,567 and 6,118,011.
For data set [2] the following is noted: cited from earlier work.
The conditions of data set [3]: Ogawa et al., U.S. Pat. No. 5,094,854, cited from earlier work.
The next data set has as its system DU145. The data set is described as follows: In vitro cytotoxicity, 72 hour MIT assay. It is filed as cell-based. Particulars: Homo sapiens, DU-145; Prostrate, DU145, 72 hour. From the text: (§1) The cytotoxicity of the Liposomal composition of Docetaxel (hereinafter referred to as “LD”) in vitro in a panel of human cancer cell lines, expected to be sensitive to Docetaxel and the effects were compared with the conventional, approved, marketed composition of Docetaxel, viz. Taxotere® (hereinafter referred to as “CD”). A solution of bulk Docetaxel in DMSO was taken as a positive control for the studies.

A further data set relates to MDA MB 453. Put plainly: In vitro cytotoxicity, 72 hour MIT assay. In kind it is cell-based. Conditions: Homo sapiens; Breast, MDA MB 453, 72 hour.
Description: as §1

In the next data set the test system is PAI. The data set is described as follows: In vitro cytotoxicity, 72 hour MIT assay. It is filed as cell-based. Conditions: Homo sapiens, Ovary.
Description: as §1

The subject of a further data set is SKOV3. Put plainly: In vitro cytotoxicity, 72 hour MIT assay. In kind it is cell-based. Particulars: Homo sapiens, SK-OV-3; Ovary, SKOV3, 72 hour.
Description: as §1

The conditions of data set [4]: Durr et al., U.S. Pat. No. 5,670,536; cited from earlier work.
Where [5] appears, read: liposome system of Hager et al.

Broadly, the IC50 is the concentration that gives 50% inhibition. Higher therefore signals a need for much substance.

Where a name gives a salt, the structure may show the parent alone. Read-outs that look alike come from different tables or passages of the source. Bounds are passed on as bounds.

With `COc1cccc2c1C(=O)c1c(O)c3c(c(O)c1C2=O)C[C@@](O)(C(=O)CO)C[C@@H]3O[C@H]1C[C@H](N)[C@H](O)[C@H](C)O1` [Doxorubicin], the “drug entrapment in the liposomes” value in data set [1] (liposomes of Barenholz et al., U.S. Pat. No. 4,797,285 and 4,898,735) is 85-90%. Besides, in data set [1] (thermosensitive liposomes of Needham et al., U.S. Pat. No. 6,200,598 and 6,726,925 B1), the “entrapment of the drug” value is “not more than 80%”. Also, the drop in potency in data set [2] (lyophilized liposomal composition of Huang et al., WO 92/02208, in two weeks) was 10-15%.
As for `N.N.[Cl][Pt][Cl]` [Cisplatin], the “rate of release of the drug” value is “hardly anything” in data set [3] (39° C.) and 30 to 95% in data set [3] (42° C.).
On to `CCCCCC(=O)OC1CC2OCC2(OC(C)=O)C2C(OC(=O)c3ccccc3)C3(O)CC(OC(=O)C(O)C(NC(=O)c4ccccc4)c4ccccc4)C(C)=C(C(OC(C)=O)C(=O)C12C)C3(C)C` (stereo not shown) [7-caproyl Paclitaxel], for which the “entrapment in the liposomes” value in data set [1] is listed as “about 90%”.
Regarding `CCCCCC(=O)OC(C(=O)OC1CC2(O)C(OC(=O)c3ccccc3)C3C4(OC(C)=O)COC4CC(O)C3(C)C(=O)C(OC(C)=O)C(=C1C)C2(C)C)C(NC(=O)c1ccccc1)c1ccccc1` (stereo not shown) [2′-caproyl Paclitaxel], the “entrapment in the liposomes” value in data set [1] is “about 70%”.
Turning to Quinoline yellow, in data set [1] (setting [5]), the liposome-bound active principle is 1.38 mg/mL and the non-liposomal-bound active principle entry was “about 3.2 mg/ml”.
Consider `COc1cccc2c1C(=O)c1c(O)c3c(c(O)c1C2=O)C[C@@](O)(C(=O)CO)C[C@@H]3O[C@H]1C[C@H](N)[C@H](O)[C@H](C)O1` [Doxorubicin hydrochloride], for which the encapsulation in data set [1] (liposome system of Hager et al., U.S. Pat. No. 5,556,637 and 5,741,517) is listed as 78%.
For the compound `CC(=O)O[C@@]12CO[C@@H]1C[C@H](O)[C@@]1(C)C(=O)[C@H](O)C3=C(C)[C@@H](OC(=O)[C@H](O)[C@@H](NC(=O)OC(C)(C)C)c4ccccc4)C[C@@](O)([C@@H](OC(=O)c4ccccc4)[C@H]21)C3(C)C` [Docetaxel Solution in DMSO, Docetaxel], the half-inhibitory concentration (IC50) was 5.13 ± 1.28 nM in the data set with DU145, 15.1 ± 2.3 nM in the data set on MDA MB 453, < 0.01 nM in the data set on PAI and 9.87 ± 2.74 nM in the data set on SKOV3. For the same compound, the “period for which liposomal compositions remain clear” value in data set [2] (Durr et al., U.S. Pat. No. 5,670,536, 20° C.) is on record as “more than eight weeks”. In addition, the particle diameter in data set [4] is listed as 47 to 71 nm.
